Data reported in patent US5770378A, “Tricyclic retinoids, methods for their production and use” (Ligand Pharmaceuticals, Inc., priority 1995, dated 1998).

Columns and labels:
RAR and RXR receptors = assay: Co-transfection assay, RAR and RXR receptors overall; format: cell-based; details: for potency profile versus 9-cis retinoic acid: pan-agonist compounds; for receptor subfamily selectivity: RAR versus RXR
Method: (§1) Utilizing the "cis-trans" or "co-transfection" assay described by Evans et al., Science, 240:889-95 (May 13, 1988), the disclosure of which is herein incorporated by reference, the retinoid compounds of the present invention were tested and found to have strong, specific activity as either selective RAR agonists, selective RXR agonists, or as pan-agonist activators of both RAR and RXR receptors. This assay is described in further detail in U.S. Pat. Nos. 4,981,784 and 5,071,773, the disclosures of which are incorporated herein by reference.
(§2) In the co-transfection assay, a cloned cDNA for an IR (e.g., human RARα, RARβ, RXRγ) under the control of a constitutive promoter (e.g., the SV 40 promoter) is introduced by transfection (a procedure to induce cells to take up foreign genes) into a background cell substantially devoid of endogenous IRs. This introduced gene directs the recipient cells to make the IR protein of interest. A second gene is also introduced (co-transfected) into the same cells in conjunction with the IR gene. This second gene, comprising the cDNA for a reporter protein, such as firefly luciferase (LUC), controlled by an appropriate hormone responsive promoter containing a hormone response element (HRE). This reporter plasmid functions as a reporter for the transcription-modulating activity of the target IR. Thus, the reporter acts as a surrogate for the products (mRNA then protein) normally expressed by a gene under control of the target receptor and its native hormone.
(§3) The co-transfection assay can detect small molecule agonists or antagonists of target IRs. Exposing the transfected cells to an agonist ligand compound increases reporter activity in the transfected cells. This activity can be conveniently measured, e.g., by increasing luciferase production, which reflects compound-dependent, IR-mediated increases in reporter transcription. […] . Increasing concentrations of a suspected antagonist will decrease the reporter signal (e.g., luciferase production). The co-transfection assay is therefore useful to detect both agonists and antagonists of specific IRs. Furthermore, it determines not only whether a compound interacts with a particular IR, but whether this interaction mimics (agonizes) or blocks (antagonizes) the effects of the native regulatory molecules on target gene expression, as well as the specificity and strength of this interaction.
To determine RAR and/or RXR agonist activity of the compounds of the present invention, the CV-1 cells were transiently transfected by calcium phosphate coprecipitation according to the procedure of Berger et al., 41 J.Steroid Biochem. Mol. Biol., 733 (1992) with the following receptor expressing plasmids: pRShRARα: Giguere et al., 330 Nature, 624 (1987); pRShRARβ and pRShRARγ, Ishikawa et al., 4 Mol. Endocrin., 837 (1990); pRShRXRα, Mangelsdorf et al., 345 Nature, 224 (1990); and pRSmRXRβ and pRSmRXRγ, Mangelsdorf et al., 6 Genes & Devel., 329 (1992), the disclosures of which are herein incorporated by reference. Each of these receptor expressing plasmids was co-transfected at a concentration of 5 ng/well, along with a basal reporter plasmid at 100 ng/well, the internal control plasmid pRS-β-Gal at 50 ng/well and filler DNA, pGEM at 45 ng/well.

RARs = assay: Co-transfection assay, RARs overall; format: cell-based, human
Method: as §1, §2
as §3, with “interaction. […]” for “interaction.”

Compound | potency profile versus 9-cis retinoic acid (RAR and RXR receptors) | RAR activity (RARs) | receptor subfamily selectivity (RAR and RXR receptors)
CC(/C=C/CC1CCCc2cc3c(cc21)C(C)(C)CCC3(C)C)=C\C(=O)O (racemic) [Compound 124b, (2E,4E)-3-Methyl-6-(1,2,3,4,5,6,7,8-octahydro-5,5,8,8-tetramethylanthracen-1-yl)hexa-2,4-dienoic acid] | superior potency profiles | – | –
CC(/C=C/C=C1/CCCc2cc3c(cc21)C(C)(C)CCC3(C)C)=C\C(=O)O [Compound 101b, (2E,4E)-3-Methyl-6-[(Z)-3,4,5,6,7,8-hexahydro-5,5,8,8-tetramethyl-2H-anthracen-1-ylidene]hexa-2,4-dienoic acid] | superior potency profiles | extremely potent RAR active | –
CC(/C=C/C=C1\CCCc2cc3c(cc21)C(C)(C)CCC3(C)C)=C\C(=O)O [Compound 109b, (2E,4E)-3-Methyl-6-[(E)-3,4,5,6,7,8-hexahydro-5,5,8,8-tetramethyl-2H-anthracen-1-ylidene]hexa-2,4-dienoic acid] | – | extremely potent RAR active | RAR selective
CC(/C=C/C=C1\CCOc2cc3c(cc21)C(C)(C)CCC3(C)C)=C\C(=O)O [Compound 119b, (2E,4E)-3-Methyl-6-[(E)-2,3,6,7,8,9-hexahydro-6,6,9,9-tetramethyl-benzo[g]chromen-4-ylidene]hexa-2,4-dienoic acid] | – | extremely potent RAR active | RAR selective
CC(/C=C/C=C1/CCOc2cc3c(cc21)C(C)(C)CCC3(C)C)=C\C(=O)O [Compound 144b] | superior potency profiles | extremely potent RAR active | –
